Experimental data reported in patent US20060100275A1, “Agent for treating interstitial cystitis” (KISSEI PHARMACEUTICAL CO., LTD., priority 2004, published 2006).

System: capsaicin-sensitive sensory nerve
Assay: Capsaicin-induced Evans Blue pigment leakage into mouse bladder (capsaicin-sensitive sensory nerve inhibition)
Type: in vivo
Details: for inhibition of capsaicin-sensitive sensory nerve (summary): female Balb/c mouse bladder, capsaicin stimulation
Description: A female Balb/c mouse (Japan SLC) which had been anesthetized by intraperitoneally administering 0.15 ml of 20% urethane was subjected to tracheal cannulation, using a polyethylene tube PE 50. A polyethylene tube PE 10 was inserted into the bladder via a urethra, and hydrochloride of ethyl (−)-2-[4-[2-[[(1S,2R)-2-hydroxy-2-(4-hydroxyphenyl)-1-methy lethyl]amino]ethyl]-2,5-dimethylphenoxy]acetate (to be referred to as “compound 1” hereinafter), which had been dissolved in physiological saline and 2 equivalents of sodium hydroxide to a concentration of 10 μM and further diluted to various concentrations with physiological saline, was injected through the tube. After 1 hour from the injection, a solution (10 ml/kg) of Evans Blue (30 mg/kg) and capsaicin (0.3 mg/kg) dissolved in physiological saline containing 0.1% DMSO and 0.1% Tween 80 was administered through caudal vein. Precisely 5 minutes after the administration, the animal was sacrificed by cervical vertebrae dislocation to extract the bladder. After removing urine and blood from the extracted bladder, wet weight of the bladder was measured, and the extracted bladder was put into each well of a 96 well microplate into which formamide had been dispensed in 150 μl portions in advance. After soaking the bladder overnight in formamide, the pigment in the bladder tissue was determined by measuring absorbance of 100 μl of the supernatant at a wavelength of 620 nm. In addition, the amount of the Evans Blue pigment per 1 mg bladder wet weight was calculated. In this connection, a mouse in which physiological saline was injected into the bladder and the Evans Blue solution containing no capsaicin was administered thereto was used as the normal control.
The results are shown in FIG. 1 by average value ± standard deviation. Inter-group significant difference between normal control group and capsaicin stimulation group was examined by student's t-test. Inter-group significant difference between compound 1 administration group and un-administration group was examined by a one dimensional analysis of variation and subsequent Dunnett's inter-multigroup comparison. A value of p<0.05 was regarded as significant.
The pigment in the bladder tissue was determined in the same manner as in Test Example 1, except that Tolterodine was used instead of the compound 1 and Hartman's solution was used instead of the physiological saline and 2 equivalents of sodium hydroxide. In this connection, a mouse in which Hartman's solution was injected into the bladder and the Evans Blue solution containing no capsaicin was administered thereto was used as the normal control.

[1] = female Balb/c mouse, injected into the bladder 1 hour before i.v. Evans Blue 30 mg/kg + capsaicin 0.3 mg/kg, various concentrations, vs solvent group

SMILES	inhibition of capsaicin-sensitive sensory nerve (summary)	amount of Evans Blue pigment in bladder tissue [1]	amount of Evans Blue pigment in bladder tissue (1 μM administration group, injected into the bladder, p<0.01 vs solvent group)
Cc1ccc(O)c([C@H](CCN(C(C)C)C(C)C)c2ccccc2)c1 [Tolterodine, reference compound]	did not inhibit the capsaicin-sensitive sensory nerve	Significant difference in the amount of Evans Blue pigment was not found	
CCOC(=O)COc1cc(C)c(CCN[C@@H](C)[C@H](O)c2ccc(O)cc2)cc1C [compound 1, ethyl (−)-2-[4-[2-[[(1S,2R)-2-hydroxy-2-(4-hydroxyphenyl)-1-methylethyl]amino]ethyl]-2,5-dimethylphenoxy]acetate]	markedly inhibited the capsaicin-sensitive sensory nerve	concentration-dependently reduced the amount of Evans Blue pigment	significantly reduced
